Where only a bound is given, the exact number is not on record here.

Data set [1] in a line: in vivo. The following applies: mouse, in vivo, iv. The procedure:
(§1) The investigations on toxicity were carried out by intravenous administration to albino mice.

Data set [2] has as its system albino mice. Put plainly: in vivo. The settings on record: Table 3. The procedure:
as §1

For data set [3], the system named is β-receptors of the blood vessel system. In words: β-receptor blocking activity on the blood vessel system (blood pressure measurement in the same animal). It is filed as in vivo, guinea pig. The following applies: ratio of effective doses from Table 1, given as 1: x. The procedure: (§2) The particular β-receptor blocking activity on the heart in comparison to that on the blood vessel system was measured by the taking of an EKG or by measurement of the blood pressure in the same animal (guinea pigs) [cf. J. R. C. Baird et al., J. Pharm. Pharmac. […] For investigation of broncho-constrictor activity, the inhibition of the isoprenalin effect on the bronchial system of the guinea pig is employed [cf. H. Konzett et al., Arch. exp. Path. Pharmak.

For data set [4], the system named is β-receptors of the bronchial system. Put plainly: inhibition of the isoprenalin effect on the bronchial system. It is filed as in vivo, guinea pig. The settings on record: for Heart: Bronchial System (activity relationship, heart = 1): ratio of effective doses from Table 1, given as 1: x; for dosage relationships in comparison with the comparison compound: Table 2, versus F; for influence of heart-active doses on the bronchial system: at heart-active doses. How it is done:
as §2

Turning to `CC(C)NCC(O)COc1cccc2c1CCN(C=O)C2` (stereo not shown) [Substance C, 2-formyl-1,2,3,4-tetrahydro-5-(2-hydroxy-3-isopropylamino-propoxy)-isoquinoline], in data set [1], the median lethal dose (LD50) – broadly, the dose at which mortality reaches 50% – came out at 148 mg/kg. Moreover, in data set [2], the “toxicity and activity in comparison with E, F, and G” value is on record as “less toxic at higher activity”.
On to `CC(C)NCC(O)COc1cccc2ccccc12` (stereo not shown) [Substance F, propranolol, reference compound], for which the “Heart: Blood vessels (activity relationship, heart = 1)” value (“Heart: Blood vessels” for short) in data set [3] is given as 1. The “Heart: Bronchial System (activity relationship, heart = 1)” value (shortened to “Heart: Bronchial System”) in data set [4] came to 0.15.
On to `COc1cc2c(cc1OCC(O)CNC(C)C)CCN(C(C)=O)C2` (stereo not shown) [Substance B, 2-acetyl-1,2,3,4-tetrahydro-6-(2-hydroxy-3-isopropylamino-propoxy)-7-methoxy-isoquinoline], for which the “Heart: Blood vessels” value in data set [3] was determined as 1.8. Further, in data set [4], the “dosage relationships in comparison with the comparison compound” value is listed as “essentially more favorable than for the comparison compound”; the “influence of heart-active doses on the bronchial system” value was “does not lead to a negative influence on the bronchial system”; the “Heart: Bronchial System” value is above 7.2.
In data set [1], `CC(C)(C)NCC(O)COc1cccc2c1CCN(C=O)C2` (stereo not shown) [Substance D, 2-formyl-1,2,3,4-tetrahydro-5-(2-hydroxy-3-tert.-butylaminopropoxy)-isoquinoline] returned a median lethal dose (LD50) of 128 mg/kg. In data set [2], the “toxicity and activity in comparison with E, F, and G” value was “less toxic at higher activity”.
`CC(C)NCC(O)COc1cccc2[nH]ccc12` (stereo not shown) [Substance E, prindolol, reference compound] displayed a 50% lethal dose (LD50) in data set [1] of 22.6 mg/kg.
`CC(=O)N1CCc2cc(OCC(O)CNC(C)C)ccc2C1` (stereo not shown) [Substance A, 2-acetyl-1,2,3,4-tetrahydro-6-(2-hydroxy-3-isopropylamino-propoxy)-isoquinoline]: the “Heart: Blood vessels” value in data set [3] amounted to 6.2. In data set [4], the “dosage relationships in comparison with the comparison compound” value is “essentially more favorable than for the comparison compound”; the “influence of heart-active doses on the bronchial system” value is on record as “does not lead to a negative influence on the bronchial system”; the “Heart: Bronchial System” value was 5.5.
`CC(=O)Nc1ccc(OCC(O)CNC(C)C)cc1` (stereo not shown) [Substance G, practolol, reference compound] gave an LD50 in data set [1] of 121 mg/kg.
